Laboratory results published in US20250197409A1, “BIFUNCTIONAL COMPOUND AND PHARMACEUTICAL COMPOSITION COMPRISING THE BIFUNCTIONAL COMPOUND, AND METHOD FOR TREATING ANDROGEN RECEPTOR RELATED DISEASE BY USING THE SAME” (ANHORN MEDICINES CO., LTD., priority 2022, published 2025).
Like-named read-outs stand apart in the source and are kept apart here.

Molecular target: T1, androgen receptor (Homo sapiens, UniProt P10275, T878A)
T1 construct: host or cells: LNCaP.FGC
Test: Androgen receptor degradation assay using Western blot analysis
Type: cell-based
Protocol: Cells not treated with any of the above-mentioned compounds are used as a negative control.
The internal loading control GAPDH was detected using a mouse monoclonal antibody (1:5000) (GTX627408, GeneTex International Corp., HsinChu City, Taiwan R.O.C.) and a goat anti-mouse HRP-conjugated secondary antibody (1:5000 dilution) (C04001, Croyez Bioscience Co., Ltd., Taipei City, Taiwan R.O.C.).
AR remaining percentage was determined by the intensity difference of AR signals (each was normalized by the corresponding internal loading control GAPDH) between the protein samples from the untreated cells (100%) and those from the treated cells. “Cpd. #” indicates the compound number hereinabove.
In addition, several compounds were selected to prepare a treatment stock solutions at 100 nM in RPMI medium. The treatment stock solutions were separately serially diluted (10×) with RPMI medium for treating LNCaP.FGC cells seeded with 2×10^5 cells per well in 24-well tissue culture plates. A calibration curve was determined by the serial diluted samples for each compound, and the concentration needed for 50% AR degradation (AR DC50) for each compound was calculated.

[1] = 24 h, LNCaP.FGC cells, 100 nM, 24 hr, normalized to GAPDH, untreated cells = 100%; read-out: Androgen Receptor Remaining (%)
[2] = read-out: AR DC50 (concentration needed for 50% AR degradation); LNCaP.FGC cells, serial 10x dilutions from 100 nM
[3] = 24 h, read-out: Androgen Receptor Remaining (%), LNCaP.FGC cells, 100 nM, 24 hr, normalized to GAPDH, untreated cells = 100%
[4] = LNCaP.FGC cells, serial 10x dilutions from 100 nM; read-out: AR DC50 (concentration needed for 50% AR degradation)

T1 sequence (P10275 whole entry T878A): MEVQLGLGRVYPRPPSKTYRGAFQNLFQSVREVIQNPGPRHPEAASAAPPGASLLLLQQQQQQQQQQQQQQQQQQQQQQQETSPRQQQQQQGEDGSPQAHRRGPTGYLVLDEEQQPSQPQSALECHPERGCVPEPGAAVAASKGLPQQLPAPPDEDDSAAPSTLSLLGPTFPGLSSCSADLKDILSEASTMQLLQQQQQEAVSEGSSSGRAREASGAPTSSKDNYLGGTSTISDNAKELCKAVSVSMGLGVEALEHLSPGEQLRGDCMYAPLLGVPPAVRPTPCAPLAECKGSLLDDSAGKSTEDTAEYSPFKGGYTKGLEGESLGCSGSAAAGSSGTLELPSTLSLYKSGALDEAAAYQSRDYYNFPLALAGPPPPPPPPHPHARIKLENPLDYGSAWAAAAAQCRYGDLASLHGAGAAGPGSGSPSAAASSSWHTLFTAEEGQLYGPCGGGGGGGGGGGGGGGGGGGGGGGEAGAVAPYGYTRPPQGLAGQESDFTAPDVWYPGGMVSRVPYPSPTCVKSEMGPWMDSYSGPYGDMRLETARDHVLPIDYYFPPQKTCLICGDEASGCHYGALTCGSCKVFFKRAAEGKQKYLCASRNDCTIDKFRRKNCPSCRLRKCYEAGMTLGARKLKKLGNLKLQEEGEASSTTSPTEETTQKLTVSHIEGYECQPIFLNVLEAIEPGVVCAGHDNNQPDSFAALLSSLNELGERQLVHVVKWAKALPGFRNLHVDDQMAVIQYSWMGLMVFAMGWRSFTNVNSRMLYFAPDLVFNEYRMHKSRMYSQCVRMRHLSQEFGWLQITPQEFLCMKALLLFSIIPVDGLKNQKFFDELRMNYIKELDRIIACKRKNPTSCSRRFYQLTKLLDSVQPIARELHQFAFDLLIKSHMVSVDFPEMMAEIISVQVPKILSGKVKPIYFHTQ
T1 sequence (Q96SW2 whole entry partner): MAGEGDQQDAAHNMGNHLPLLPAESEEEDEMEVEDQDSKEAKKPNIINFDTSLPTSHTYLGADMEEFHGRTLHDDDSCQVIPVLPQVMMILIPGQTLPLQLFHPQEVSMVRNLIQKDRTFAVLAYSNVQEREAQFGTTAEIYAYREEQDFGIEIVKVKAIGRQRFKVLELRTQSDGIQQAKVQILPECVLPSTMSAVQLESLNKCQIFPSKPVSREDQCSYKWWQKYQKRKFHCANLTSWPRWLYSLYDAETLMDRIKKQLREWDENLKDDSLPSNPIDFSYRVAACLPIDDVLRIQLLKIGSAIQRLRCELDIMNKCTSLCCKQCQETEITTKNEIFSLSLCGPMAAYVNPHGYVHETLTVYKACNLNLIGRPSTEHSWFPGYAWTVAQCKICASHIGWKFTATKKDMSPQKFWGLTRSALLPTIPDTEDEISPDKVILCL

Row | Compound | remaining activity at 0.1 µM [1] [%] | DC50 [2] [nM] | remaining activity at 0.1 µM [3] [%] | DC50 [4] [nM]
1 | Cn1c2c(c3ccc(OCC4CCN(c5ccc(C(=O)N[C@H]6CC[C@H](Oc7ccc(C#N)c(Cl)c7)CC6)cn5)CC4)cc31)C(=O)N(C1CCC(=O)N(CO)C1=O)C2=O (some centres unmarked) [Compound 34] | 75 | – | – | –
2 | Cn1c2c(c3ccc(OCC4CCN(c5ccc(C(=O)N[C@H]6CC[C@H](Oc7ccc(C#N)c(Cl)c7)CC6)cn5)CC4)cc31)C(=O)N(C1CCC(=O)NC1=O)C2=O (some centres unmarked) [Compound 35] | 75 | – | – | –
3 | CCn1c2c(c3ccc(OCC(C)COC4CCN(c5ccc(C(=O)N[C@H]6CC[C@H](Oc7ccc(C#N)c(Cl)c7)CC6)nn5)CC4)cc31)C(=O)N(C1CCC(=O)NC1=O)C2=O (some centres unmarked) [Compound 36] | – | 10 to 25 | – | –
4 | CCn1c2c(c3ccc(OCCCN4CCN(c5ccc(C(=O)N[C@H]6C(C)(C)[C@H](Oc7ccc(C#N)c(Cl)c7)C6(C)C)nn5)CC4)cc31)C(=O)N(C1CCC(=O)NC1=O)C2=O (some centres unmarked) [Compound 37] | – | – | 55 | –
5 | CCn1c2c(c3ccc(OCCCN4CCC(c5ncc(C(=O)N[C@H]6CC[C@H](Oc7ccc(C#N)c(Cl)c7)CC6)cn5)CC4)cc31)C(=O)N(C1CCC(=O)NC1=O)C2=O (some centres unmarked) [Compound 38] | – | 25 to 100 | – | –
6 | Cn1c2c(c3ccc(OCCCN4CCN(c5ccc(C(=O)N[C@H]6CC[C@H](Oc7ccc(C#N)c(Cl)c7)CC6)nn5)CC4)cc31)C(=O)N(C1CCC(=O)NC1=O)C2=O (some centres unmarked) [Compound 39] | 16 | – | – | 10 to 25
7 | Cn1c2c(c3ccc(OCCCN4CCN(c5ccc(C(=O)N[C@H]6C(C)(C)[C@H](Oc7ccc(C#N)c(Cl)c7)C6(C)C)nn5)CC4)cc31)C(=O)N(C1CCC(=O)NC1=O)C2=O (some centres unmarked) [Compound 40] | 29 | – | – | > 100
8 | Cn1c2c(c3ccc(NC(=O)CN4CCN(c5ccc(C(=O)N[C@H]6CC[C@H](Oc7ccc(C#N)c(Cl)c7)CC6)nn5)CC4)cc31)C(=O)N(C1CCC(=O)NC1=O)C2=O (some centres unmarked) [Compound 41] | 81 | – | – | –
9 | Cn1c2c(c3ccc(NC(=O)CN4CCN(c5ccc(C(=O)N[C@H]6C(C)(C)[C@H](Oc7ccc(C#N)c(Cl)c7)C6(C)C)cn5)CC4)cc31)C(=O)N(C1CCC(=O)NC1=O)C2=O (some centres unmarked) [Compound 42] | 30 | – | – | 10 to 25
10 | Cn1c2c(c3cccc(OCCCN4CCN(c5ccc(C(=O)N[C@H]6CC[C@H](Oc7ccc(C#N)c(Cl)c7)CC6)nn5)CC4)c31)C(=O)N(C1CCC(=O)NC1=O)C2=O (some centres unmarked) [Compound 43] | 26 | – | – | 25 to 100
11 | Cn1c2c(c3ccc(OCCCN4CCC(c5ncc(C(=O)N[C@H]6CC[C@H](Oc7ccc(C#N)c(Cl)c7)CC6)cn5)CC4)cc31)C(=O)N(C1CCC(=O)NC1=O)C2=O (some centres unmarked) [Compound 44] | – | – | – | 25 to 100
12 | Cn1c2c(c3ccc(OCCN4CCC(c5ncc(C(=O)N[C@H]6CC[C@H](Oc7ccc(C#N)c(Cl)c7)CC6)cn5)CC4)cc31)C(=O)N(C1CCC(=O)NC1=O)C2=O (some centres unmarked) [Compound 45] | – | – | – | 25 to 100
13 | CCn1c2c(c3ccc(OCCCN4CCCN(c5ccc(C(=O)N[C@H]6CC[C@H](Oc7ccc(C#N)c(Cl)c7)CC6)nn5)CC4)cc31)C(=O)N(C1CCC(=O)NC1=O)C2=O (some centres unmarked) [Compound 46] | – | 10 to 25 | 20 | –
14 | CCn1c2c(c3ccc(OCCCN4C5CCC4CN(c4ccc(C(=O)N[C@H]6CC[C@H](Oc7ccc(C#N)c(Cl)c7)CC6)nn4)C5)cc31)C(=O)N(C1CCC(=O)NC1=O)C2=O (some centres unmarked) [Compound 47] | – | 10 to 25 | 19 | –
15 | CCn1c2c(c3ccc(OCCCN4CCC5(CC4)CN(c4ccc(C(=O)N[C@H]6CC[C@H](Oc7ccc(C#N)c(Cl)c7)CC6)nn4)C5)cc31)C(=O)N(C1CCC(=O)NC1=O)C2=O (some centres unmarked) [Compound 48] | – | < 10 | 20 | –
16 | CCn1c2c(c3ccc(OCCCN4CCC5(CC4)CN(c4ccc(C(=O)N[C@H]6C(C)(C)[C@H](Oc7ccc(C#N)c(Cl)c7)C6(C)C)nn4)C5)cc31)C(=O)N(C1CCC(=O)NC1=O)C2=O (some centres unmarked) [Compound 49] | – | 25 to 100 | 36 | –
17 | Cn1c2c(c3ccc(NC(=O)CN4CCN(c5ccc(C(=O)N[C@H]6C(C)(C)[C@H](Oc7ccc(C#N)c(Cl)c7)C6(C)C)nn5)CC4)cc31)C(=O)N(C1CCC(=O)NC1=O)C2=O (some centres unmarked) [Compound 50] | 45 | – | – | 25 to 100
